One molecule from PMC5218480 (PLoS ONE, 2017) can be followed below.

The subject of this experiment is MV-4-11 cells. Kind of experiment: Gene expression microarray analysis (Affymetrix PrimeView) and GSEA. Set-up: RFU PODN (11730768_x_at) / Fold change /veh PODN (11730768_x_at) / RFU LINC00158 (11744669_a_at) / Fold change /veh LINC00158 (11744669_a_at) / RFU DUSP10 (11751237_a_at) / Fold change /veh DUSP10 (11751237_a_at) / RFU ID3 (11757404_x_at) / Fold change /veh ID3 (11757404_x_at) / RFU PLEKHG5 (11737974_s_at) / Fold change /veh PLEKHG5 (11737974_s_at) / RFU LRRC4B (11730491_at) / Fold change /veh LRRC4B (11730491_at) / RFU GIMAP4 (11747438_a_at) / Fold change /veh GIMAP4 (11747438_a_at) / RFU KRT8 (11758183_x_at) / Fold change /veh KRT8 (11758183_x_at) / RFU CNN1 (11734310_a_at) / Fold change /veh CNN1 (11734310_a_at) / RFU VPS37D (11726825_at) / Fold change /veh VPS37D (11726825_at) / RFU C10orf10 (11716522_x_at) / Fold change /veh C10orf10 (11716522_x_at) / RFU KIR2DL2 /// KIR2DL4 /// KIR2DL5A /// KIR2DL5B /// KIR2DS1 /// KIR2DS2 /// KIR2DS3 /// KIR2DS4 /// KIR3DL3 /// KIR3DL3 /// KIR3DS1 (11738374_at) / Fold change /veh KIR2DL2 /// KIR2DL4 /// KIR2DL5A /// KIR2DL5B /// KIR2DS1 /// KIR2DS2 /// KIR2DS3 /// KIR2DS4 /// KIR3DL3 /// KIR3DL3 /// KIR3DS1 (11738374_at) / RFU C1QL1 (11718748_at) / Fold change /veh C1QL1 (11718748_at) / RFU TMPRSS4 (11747572_a_at) / Fold change /veh TMPRSS4 (11747572_a_at) / RFU HAMP (11756126_x_at) / Fold change /veh HAMP (11756126_x_at) / RFU RNFT2 (11725882_a_at) / Fold change /veh RNFT2 (11725882_a_at) / RFU NR4A2 (11747474_a_at) / Fold change /veh NR4A2 (11747474_a_at) / RFU ABCC12 (11746883_a_at) / Fold change /veh ABCC12 (11746883_a_at) / RFU TMEM136 (11760407_x_at) / Fold change /veh TMEM136 (11760407_x_at) / RFU CLDN22 /// WWC2 (11732394_at) / Fold change /veh CLDN22 /// WWC2 (11732394_at) / RFU HLA-DPB1 (11760878_x_at) / Fold change /veh HLA-DPB1 (11760878_x_at) / RFU SPINT1 (11716480_a_at) / Fold change /veh SPINT1 (11716480_a_at) / RFU GAP43 (11754022_s_at) / Fold change /veh GAP43 (11754022_s_at) / RFU A4GNT (11735810_at) / Fold change /veh A4GNT (11735810_at) / RFU PRB3 (11715151_x_at) / Fold change /veh PRB3 (11715151_x_at) / RFU TUBB4B (11761932_at) / Fold change /veh TUBB4B (11761932_at) / RFU CAPN14 (11732068_a_at) / Fold change /veh CAPN14 (11732068_a_at) / RFU TMCC2 (11721928_a_at) / Fold change /veh TMCC2 (11721928_a_at) / RFU IRGQ (11745062_a_at) / Fold change /veh IRGQ (11745062_a_at) / RFU FAM174B (11720279_a_at) / Fold change /veh FAM174B (11720279_a_at) / RFU TMPRSS4 (11748680_a_at) / Fold change /veh TMPRSS4 (11748680_a_at) / RFU FAM212B (11763350_a_at) / Fold change /veh FAM212B (11763350_a_at) / RFU PLEKHG5 (11743358_a_at) / Fold change /veh PLEKHG5 (11743358_a_at) / RFU ZSCAN30 (11745921_a_at) / Fold change /veh ZSCAN30 (11745921_a_at) / RFU CMKLR1 (11741424_a_at) / Fold change /veh CMKLR1 (11741424_a_at) / RFU LOC101060620 /// MAPK8IP1 (11723275_at) / Fold change /veh LOC101060620 /// MAPK8IP1 (11723275_at) / RFU SPTSSB (11747773_x_at) / Fold change /veh SPTSSB (11747773_x_at) / RFU PRSS12 (11739890_at) / Fold change /veh PRSS12 (11739890_at) / RFU BIN1 (11741810_x_at) / Fold change /veh BIN1 (11741810_x_at) / RFU WNT11 (11732464_a_at) / Fold change /veh WNT11 (11732464_a_at) / RFU C10orf10 (11716521_a_at) / Fold change /veh C10orf10 (11716521_a_at) / RFU C5orf56 (11738089_at) / Fold change /veh C5orf56 (11738089_at) / RFU CYB561 (11721691_x_at) / Fold change /veh CYB561 (11721691_x_at) / RFU ANKRD19P (11752326_a_at) / Fold change /veh ANKRD19P (11752326_a_at) / RFU OR2T12 /// OR2T33 /// OR2T8 (11738714_s_at) / Fold change /veh OR2T12 /// OR2T33 /// OR2T8 (11738714_s_at) / RFU VCAN (11748164_a_at) / Fold change /veh VCAN (11748164_a_at) / RFU JSRP1 (11732532_at) / Fold change /veh JSRP1 (11732532_at) / RFU KRTAP10-11 (11738290_x_at) / Fold change /veh KRTAP10-11 (11738290_x_at) / RFU MYO3A (11730013_a_at) / Fold change /veh MYO3A (11730013_a_at) / RFU EBF3 (11725865_a_at) / Fold change /veh EBF3 (11725865_a_at) / RFU CAMK2N1 (11719241_x_at) / Fold change /veh CAMK2N1 (11719241_x_at) / RFU C5orf56 (11738088_a_at) / Fold change /veh C5orf56 (11738088_a_at) / RFU OLFML3 (11715873_a_at) / Fold change /veh OLFML3 (11715873_a_at) / RFU LOC100653217 /// NTM (11731650_a_at) / Fold change /veh LOC100653217 /// NTM (11731650_a_at) / RFU MAPK11 (11762145_a_at) / Fold change /veh MAPK11 (11762145_a_at) / RFU FIZ1 (11724087_x_at) / Fold change /veh FIZ1 (11724087_x_at) / RFU OASL (11726364_x_at) / Fold change /veh OASL (11726364_x_at) / RFU SOX15 (11748057_x_at) / Fold change /veh SOX15 (11748057_x_at) / RFU CD79A (11719716_a_at) / Fold change /veh CD79A (11719716_a_at) / RFU HIST1H1D (11736915_at) / Fold change /veh HIST1H1D (11736915_at) / RFU CASKIN2 (11723855_a_at) / Fold change /veh CASKIN2 (11723855_a_at) / RFU LOC730098 (11760151_x_at) / Fold change /veh LOC730098 (11760151_x_at) / RFU OR4N2 (11742367_at) / Fold change /veh OR4N2 (11742367_at) / RFU PRRT2 (11749266_a_at) / Fold change /veh PRRT2 (11749266_a_at) / RFU SNX32 (11753110_a_at) / Fold change /veh SNX32 (11753110_a_at) / RFU CDHR5 (11726645_a_at) / Fold change /veh CDHR5 (11726645_a_at) / RFU RCAN1 (11760418_a_at) / Fold change /veh RCAN1 (11760418_a_at) / RFU FAM167A (11723789_a_at) / Fold change /veh FAM167A (11723789_a_at) / RFU FAM26E (11764081_at) / Fold change /veh FAM26E (11764081_at) / RFU ISYNA1 (11749810_s_at) / Fold change /veh ISYNA1 (11749810_s_at) / RFU ACY1 (11761880_at) / Fold change /veh ACY1 (11761880_at) / RFU 11764098_at / Fold change /veh 11764098_at / RFU SAMD14 (11745864_x_at) / Fold change /veh SAMD14 (11745864_x_at) / RFU NPB (11741838_a_at) / Fold change /veh NPB (11741838_a_at) / RFU TMPRSS6 (11731388_a_at) / Fold change /veh TMPRSS6 (11731388_a_at) / RFU KRTAP10-2 (11738614_at) / Fold change /veh KRTAP10-2 (11738614_at) / RFU ARHGAP8 /// PRR5-ARHGAP8 (11727945_x_at) / Fold change /veh ARHGAP8 /// PRR5-ARHGAP8 (11727945_x_at) / RFU KRTAP5-7 /// NADSYN1 (11734609_at) / Fold change /veh KRTAP5-7 /// NADSYN1 (11734609_at) / RFU RASL12 (11751679_a_at) / Fold change /veh RASL12 (11751679_a_at) / RFU CDKN2B (11736163_a_at) / Fold change /veh CDKN2B (11736163_a_at) / RFU PRF1 (11729649_at) / Fold change /veh PRF1 (11729649_at) / RFU, ZNF638 /// ZNF638-IT1 / Fold change vs veh, ZNF638 /// ZNF638-IT1 / RFU, PANK3 / Fold change vs veh, PANK3 / RFU, SH3YL1 / Fold change vs veh, SH3YL1 / RFU, ZEB2 / Fold change vs veh, ZEB2 / RFU, NRIP1 / Fold change vs veh, NRIP1 / RFU, PTTG1IP / Fold change vs veh, PTTG1IP / RFU, CAPN2 / Fold change vs veh, CAPN2 / RFU, MED14 / Fold change vs veh, MED14 / RFU, SNORA58 / Fold change vs veh, SNORA58 / RFU, C1orf63 / Fold change vs veh, C1orf63 / RFU, LRRFIP1 / Fold change vs veh, LRRFIP1 / RFU, NDUFAF7 / Fold change vs veh, NDUFAF7 / RFU, SLC12A2 / Fold change vs veh, SLC12A2 / RFU, IBTK / Fold change vs veh, IBTK / RFU, ESF1 / Fold change vs veh, ESF1 / Fold change vs veh, TMEM50B / RFU, TAOK1 / Fold change vs veh, TAOK1 / RFU, ACBD3 / Fold change vs veh, ACBD3 / RFU, TMA16 / Fold change vs veh, TMA16 / RFU, RWDD3 / Fold change vs veh, RWDD3 / RFU, BCAT1 / Fold change vs veh, BCAT1 / RFU, EDEM3 / Fold change vs veh, EDEM3 / RFU, TMEM33 / Fold change vs veh, TMEM33 / RFU, WDR75 / Fold change vs veh, WDR75 / RFU, AHCTF1 / Fold change vs veh, AHCTF1 / RFU, TFRC / Fold change vs veh, TFRC / RFU, ZDHHC17 / Fold change vs veh, ZDHHC17 / RFU, NOM1 / Fold change vs veh, NOM1 / RFU, ARL8B / Fold change vs veh, ARL8B / RFU, ZBTB11 / Fold change vs veh, ZBTB11 / RFU, TAMM41 / Fold change vs veh, TAMM41 / RFU, KIAA1704 /// LOC100996395 / Fold change vs veh, KIAA1704 /// LOC100996395 / RFU, ING1 / Fold change vs veh, ING1 / RFU, TRMT61B / Fold change vs veh, TRMT61B / RFU, FUBP3 / Fold change vs veh, FUBP3 / RFU, TP53 / Fold change vs veh, TP53 / RFU, TNKS2 / Fold change vs veh, TNKS2 / RFU, ZFP14 / Fold change vs veh, ZFP14 / RFU, ACTR2 / Fold change vs veh, ACTR2 / RFU, PPP3R1 / Fold change vs veh, PPP3R1 / RFU, PIK3R1 / Fold change vs veh, PIK3R1 / RFU, HNRNPA1 / Fold change vs veh, HNRNPA1 / RFU, RNF170 / Fold change vs veh, RNF170 / RFU, ZNF28 / Fold change vs veh, ZNF28 / RFU, RNGTT / Fold change vs veh, RNGTT / RFU, OGT / Fold change vs veh, OGT / RFU, BRD1 / Fold change vs veh, BRD1 / RFU, MARS / Fold change vs veh, MARS / RFU, ZNF655 / Fold change vs veh, ZNF655 / RFU, FAHD1 / Fold change vs veh, FAHD1 / RFU, BDP1 / Fold change vs veh, BDP1 / RFU, LRRCC1 / Fold change vs veh, LRRCC1 / RFU, ARID1A / Fold change vs veh, ARID1A / RFU, ZNF146 / Fold change vs veh, ZNF146 / RFU, ZNF330 / Fold change vs veh, ZNF330 / RFU, GPN3 / Fold change vs veh, GPN3 / RFU, C9orf123 / Fold change vs veh, C9orf123 / RFU, N4BP2L2 / Fold change vs veh, N4BP2L2 / RFU, ARFIP1 / Fold change vs veh, ARFIP1 / RFU, FAM179B / Fold change vs veh, FAM179B / RFU, BCL10 / Fold change vs veh, BCL10 / RFU, UHRF1BP1L / Fold change vs veh, UHRF1BP1L / RFU, BET1 / Fold change vs veh, BET1 / RFU, CNOT2 / Fold change vs veh, CNOT2 / RFU, ZNF268 / Fold change vs veh, ZNF268 / Fold change vs veh, ZNF507 / RFU, DGCR2 / Fold change vs veh, DGCR2 / RFU, WDSUB1 / Fold change vs veh, WDSUB1 / Fold change vs veh, HSP90B1 /// MIR3652 / RFU, ADSS / Fold change vs veh, ADSS / RFU, GK / Fold change vs veh, GK / RFU, ZNF148 / Fold change vs veh, ZNF148 / RFU, TAF9 / Fold change vs veh, TAF9 / RFU, SLC1A5 / Fold change vs veh, SLC1A5 / RFU, SLMO2 / Fold change vs veh, SLMO2 / RFU, ABCC4 / Fold change vs veh, ABCC4 / RFU, LOC101060439 /// RAP1B / Fold change vs veh, LOC101060439 /// RAP1B / RFU, RFX7 / Fold change vs veh, RFX7 / RFU, GTPBP10 / Fold change vs veh, GTPBP10 / RFU, CNEP1R1 / Fold change vs veh, CNEP1R1 / RFU, BIVM-ERCC5 /// ERCC5 / Fold change vs veh, BIVM-ERCC5 /// ERCC5 / RFU, ILF3 / Fold change vs veh, ILF3 / RFU 11762660_at / Fold change /veh 11762660_at / RFU VCAN (11757783_s_at) / Fold change /veh VCAN (11757783_s_at) / RFU DDX43 (11728927_at) / Fold change /veh DDX43 (11728927_at) / RFU KRT8 (11758188_x_at) / Fold change /veh KRT8 (11758188_x_at) / RFU NKD1 (11759106_at) / Fold change /veh NKD1 (11759106_at) / RFU SRD5A1 (11742802_a_at) / Fold change /veh SRD5A1 (11742802_a_at) / RFU TPSAB1 /// TPSB2 (11721975_s_at) / Fold change /veh TPSAB1 /// TPSB2 (11721975_s_at) / RFU GSTM3 (11746129_a_at) / Fold change /veh GSTM3 (11746129_a_at) / RFU IL23R (11737362_x_at) / Fold change /veh IL23R (11737362_x_at) / RFU TMEM51 (11727254_a_at) / Fold change /veh TMEM51 (11727254_a_at) / RFU PIWIL2 (11732686_x_at) / Fold change /veh PIWIL2 (11732686_x_at) / RFU ORM1 (11744905_x_at) / Fold change /veh ORM1 (11744905_x_at) / RFU CCDC152 (11743942_at) / Fold change /veh CCDC152 (11743942_at) / RFU ECM1 (11717891_a_at) / Fold change /veh ECM1 (11717891_a_at) / RFU IL23R (11748794_a_at) / Fold change /veh IL23R (11748794_a_at) / RFU TNFAIP8L3 (11732012_x_at) / Fold change /veh TNFAIP8L3 (11732012_x_at) / RFU MBOAT4 (11741988_at) / Fold change /veh MBOAT4 (11741988_at) / RFU 11764193_at / Fold change /veh 11764193_at / RFU TMEM53 (11763286_at) / Fold change /veh TMEM53 (11763286_at) / RFU MAGEB2 (11727129_at) / Fold change /veh MAGEB2 (11727129_at) / RFU TMEM200A (11744735_a_at) / Fold change /veh TMEM200A (11744735_a_at) / RFU CCDC152 (11751479_a_at) / Fold change /veh CCDC152 (11751479_a_at) / RFU FAM211A (11726209_a_at) / Fold change /veh FAM211A (11726209_a_at) / RFU RGS16 (11746705_a_at) / Fold change /veh RGS16 (11746705_a_at) / RFU VCAN (11755009_s_at) / Fold change /veh VCAN (11755009_s_at) / RFU RHOB (11743442_s_at) / Fold change /veh RHOB (11743442_s_at) / RFU RGS16 (11720943_a_at) / Fold change /veh RGS16 (11720943_a_at) / RFU RGS16 (11720944_at) / Fold change /veh RGS16 (11720944_at) / RFU, VPS4B / Fold change vs veh, VPS4B / RFU, CREB1 / Fold change vs veh, CREB1 / RFU, DNAJC13 / Fold change vs veh, DNAJC13 / RFU, GNAQ / Fold change vs veh, GNAQ / RFU, CDK5R1 / Fold change vs veh, CDK5R1 / RFU, ZRANB3 / Fold change vs veh, ZRANB3 / RFU, CUL4A / Fold change vs veh, CUL4A / RFU, CCNY / Fold change vs veh, CCNY / RFU, UFL1 / Fold change vs veh, UFL1 / RFU, COG3 / Fold change vs veh, COG3 / RFU, DIAPH2 / Fold change vs veh, DIAPH2 / RFU, SKA2 / Fold change vs veh, SKA2 / RFU, AFF3 / Fold change vs veh, AFF3 / RFU, LMF1 / Fold change vs veh, LMF1 / RFU, IPO11 / Fold change vs veh, IPO11 / RFU, DFFB / Fold change vs veh, DFFB / RFU, FOXP1 / Fold change vs veh, FOXP1 / RFU, CARD8 / Fold change vs veh, CARD8 / RFU, STRN3 / Fold change vs veh, STRN3 / RFU, ADK / Fold change vs veh, ADK / RFU, RASSF2 / Fold change vs veh, RASSF2 / RFU, WIPF1 / Fold change vs veh, WIPF1 / RFU, LARP1B / Fold change vs veh, LARP1B / RFU, RASA1 / Fold change vs veh, RASA1 / RFU, RB1 / Fold change vs veh, RB1 / RFU, PPFIA1 / Fold change vs veh, PPFIA1 / RFU, MAT2A / Fold change vs veh, MAT2A / RFU, CCT5 / Fold change vs veh, CCT5 / RFU, WDR92 / Fold change vs veh, WDR92 / RFU, CUX1 / Fold change vs veh, CUX1 / RFU, TTC7A / Fold change vs veh, TTC7A / RFU, TMEM135 / Fold change vs veh, TMEM135 / RFU, DEPTOR / Fold change vs veh, DEPTOR / RFU, CPM / Fold change vs veh, CPM / RFU, DNAJB6 / Fold change vs veh, DNAJB6 / RFU, CACNA2D3 / Fold change vs veh, CACNA2D3 / RFU, DTX4 / Fold change vs veh, DTX4 / RFU, TFCP2 / Fold change vs veh, TFCP2 / RFU, GMCL1 /// GMCL1P1 / Fold change vs veh, GMCL1 /// GMCL1P1 / RFU, AEBP2 / Fold change vs veh, AEBP2 / RFU, SNHG1 /// SNORD22 /// SNORD25 /// SNORD26 /// SNORD27 /// SNORD28 /// SNORD29 /// SNORD31 / Fold change vs veh, SNHG1 /// SNORD22 /// SNORD25 /// SNORD26 /// SNORD27 /// SNORD28 /// SNORD29 /// SNORD31 / Fold change (Aza/veh), C12orf56 (ProbeSet 11735607_a_at) / Fold change (ACY-1035/veh), C12orf56 (ProbeSet 11735607_a_at) / Fold change (Aza/veh), FGFR1OP (ProbeSet 11751329_s_at) / Fold change (ACY-1035/veh), FGFR1OP (ProbeSet 11751329_s_at) / Fold change (Aza/veh), VPS36 (ProbeSet 11739960_a_at) / Fold change (ACY-1035/veh), VPS36 (ProbeSet 11739960_a_at) / RFU SYPL1 (11715823_x_at) / Fold change /veh SYPL1 (11715823_x_at) / RFU IGFBP7 (11715501_s_at) / Fold change /veh IGFBP7 (11715501_s_at) / RFU REEP3 (11722064_at) / Fold change /veh REEP3 (11722064_at) / RFU IGLL1 (11728026_x_at) / Fold change /veh IGLL1 (11728026_x_at): dose or concentration left out as unconfirmed. The settings on record: MV-4-11 cells, 48 hours. The format is cell-based, human.

In the case of `Nc1ccc(-c2cccs2)cc1NC(=O)c1ccc2c(c1)cc(C1CC1)n2CCN1CCOCC1` [ACY-1035], the “RFU SNX32 (11753110_a_at)” value came to 6.46 RFU.
